Data: ChEMBL document CHEMBL1909294, “Translating clinical findings into knowledge in drug safety evaluation--drug induced liver injury prediction system (DILIps)” (PLoS Comput Biol, 2011)

Legend:
[1] = tested on: Hepatotoxicity;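 for HepSE cholecystitis: Cholecystitis-related hepatic side effect score drawn from the DILIps (drug-induced liver injury prediction) training data set; call rule not given here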;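 for HepSE cholelithiasis: hepatic side effect score for cholelithiasis, drawn from the DILIps training data for predicting drug-induced liver injury; call rule not given here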;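 for HepSE cirrhosis: cirrhosis hepatic side effect score taken from the DILIps (drug-induced liver injury prediction) training set; call rule not given here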; for HepSE hepatic failure: call rule not given here;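 for HepSE hepatitis: Hepatitis-related hepatic side effect score taken from the training data of DILIps, a prediction system for drug-induced liver injury; call rule not given here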;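 for HepSE hepatomegaly: hepatic side effect score for hepatomegaly, taken from the training set of the DILIps drug-induced liver injury prediction system; call rule not given here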;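 for HepSE jaundice: Jaundice-related hepatic side-effect score drawn from the training data of the DILIps (drug-induced liver injury prediction system); call rule not given here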
[2] = tested on: Hepatotoxicity; remark: listed apart in the source;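 for HepSE cholecystitis: Cholecystitis-related hepatic side effect score drawn from the DILIps (drug-induced liver injury prediction) training data set; call rule not given here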;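 for HepSE cholelithiasis: hepatic side effect score for cholelithiasis, drawn from the DILIps training data for predicting drug-induced liver injury; call rule not given here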;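 for HepSE cirrhosis: cirrhosis hepatic side effect score taken from the DILIps (drug-induced liver injury prediction) training set; call rule not given here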; for HepSE hepatic failure: call rule not given here;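 for HepSE hepatitis: Hepatitis-related hepatic side effect score taken from the training data of DILIps, a prediction system for drug-induced liver injury; call rule not given here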;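 for HepSE hepatomegaly: hepatic side effect score for hepatomegaly, taken from the training set of the DILIps drug-induced liver injury prediction system; call rule not given here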
[3] = tested on: Hepatotoxicity; remark: listed apart in the source;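 for HepSE cholecystitis: Cholecystitis-related hepatic side effect score drawn from the DILIps (drug-induced liver injury prediction) training data set; call rule not given here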;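 for HepSE cholelithiasis: hepatic side effect score for cholelithiasis, drawn from the DILIps training data for predicting drug-induced liver injury; call rule not given here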;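 for HepSE cirrhosis: cirrhosis hepatic side effect score taken from the DILIps (drug-induced liver injury prediction) training set; call rule not given here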; for HepSE hepatic failure: call rule not given here;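 for HepSE hepatitis: Hepatitis-related hepatic side effect score taken from the training data of DILIps, a prediction system for drug-induced liver injury; call rule not given here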;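 for HepSE hepatomegaly: hepatic side effect score for hepatomegaly, taken from the training set of the DILIps drug-induced liver injury prediction system; call rule not given here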
[4] = tested on: Hepatotoxicity; remark: listed apart in the source;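 for HepSE cholecystitis: Cholecystitis-related hepatic side effect score drawn from the DILIps (drug-induced liver injury prediction) training data set; call rule not given here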;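 for HepSE cholelithiasis: hepatic side effect score for cholelithiasis, drawn from the DILIps training data for predicting drug-induced liver injury; call rule not given here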;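 for HepSE cirrhosis: cirrhosis hepatic side effect score taken from the DILIps (drug-induced liver injury prediction) training set; call rule not given here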; for HepSE hepatic failure: call rule not given here;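 for HepSE hepatitis: Hepatitis-related hepatic side effect score taken from the training data of DILIps, a prediction system for drug-induced liver injury; call rule not given here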;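 for HepSE hepatomegaly: hepatic side effect score for hepatomegaly, taken from the training set of the DILIps drug-induced liver injury prediction system; call rule not given here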
[5] = tested on: Hepatotoxicity; remark: listed apart in the source; for HepSE hepatic failure: call rule not given here
[6] = tested on: Hepatotoxicity; remark: listed apart in the source; for HepSE hepatic failure: call rule not given here
[7] = tested on: Hepatotoxicity; remark: listed apart in the source
[8] = tested on: Hepatotoxicity; remark: listed apart in the source
[9] = tested on: Hepatotoxicity; remark: listed apart in the source
[10] = tested on: Hepatotoxicity; remark: listed apart in the source
[11] = tested on: Hepatotoxicity; remark: listed apart in the source
[12] = tested on: Hepatotoxicity; remark: listed apart in the source
[13] = tested on: Hepatotoxicity; remark: listed apart in the source
[14] = tested on: Hepatotoxicity; remark: listed apart in the source

CC(C)C(=O)Nc1ccc([N+](=O)[O-])c(C(F)(F)F)c1 [FLUTAMIDE]
HepSE_hepatomegaly [1]: 0 | HepSE_cirrhosis [2]: 0 | HepSE_cholelithiasis [3]: 0 | HepSE_hepatic failure [4]: 0 | HepSE_cholecystitis [5]: 0 | HepSE_hepatitis [6]: 1 | HepSE_jaundice [7]: 1 | HepSE_Combined Scores [8]: 3 | HepSE_liver function tests abnormal [9]: 0 | HepSE_bilirubinemia [10]: 0 | HepSE_liver fatty [11]: 0 | HepSE_liver disease [12]: 0 | HepSE_hepatic necrosis [13]: 1 | HepSE_elevated liver function tests [14]: 0

CC(=O)OCC(CCn1cnc2cnc(N)nc21)COC(C)=O [FAMCICLOVIR]
HepSE_hepatomegaly [1]: 0 | HepSE_cirrhosis [2]: 0 | HepSE_cholelithiasis [3]: 0 | HepSE_hepatic failure [4]: 0 | HepSE_cholecystitis [5]: 0 | HepSE_hepatitis [6]: 0 | HepSE_jaundice [7]: 1 | HepSE_Combined Scores [8]: 3 | HepSE_liver function tests abnormal [9]: 1 | HepSE_bilirubinemia [10]: 1 | HepSE_liver fatty [11]: 0 | HepSE_liver disease [12]: 0 | HepSE_hepatic necrosis [13]: 0 | HepSE_elevated liver function tests [14]: 0

CN/C(=N/CCSCc1nc[nH]c1C)NC#N [CIMETIDINE]
HepSE_hepatomegaly ([1]; Liver): 0 | HepSE_cirrhosis ([2]; Liver): 0 | HepSE_cholelithiasis ([3]; Liver): 0 | HepSE_hepatic failure ([4]; Liver): 0 | HepSE_cholecystitis ([5]; Liver): 0 | HepSE_hepatitis ([6]; Liver): 0 | HepSE_jaundice ([7]; Liver): 0 | HepSE_Combined Scores ([8]; Liver): 0 | HepSE_liver function tests abnormal ([9]; Liver): 0 | HepSE_bilirubinemia ([10]; Liver): 0 | HepSE_liver fatty ([11]; Liver): 0 | HepSE_liver disease ([12]; Liver): 0 | HepSE_hepatic necrosis ([13]; Liver): 0 | HepSE_elevated liver function tests ([14]; Liver): 0

CC(C)NCC(O)c1ccc(O)c(O)c1 (configuration not stated) [ISOPROTERENOL]
HepSE_hepatomegaly ([1]; Liver): 0 | HepSE_cirrhosis ([2]; Liver): 0 | HepSE_cholelithiasis ([3]; Liver): 0 | HepSE_hepatic failure ([4]; Liver): 0 | HepSE_cholecystitis ([5]; Liver): 0 | HepSE_hepatitis ([6]; Liver): 0 | HepSE_jaundice ([7]; Liver): 0 | HepSE_Combined Scores ([8]; Liver): 0 | HepSE_liver function tests abnormal ([9]; Liver): 0 | HepSE_bilirubinemia ([10]; Liver): 0 | HepSE_liver fatty ([11]; Liver): 0 | HepSE_liver disease ([12]; Liver): 0 | HepSE_hepatic necrosis ([13]; Liver): 0 | HepSE_elevated liver function tests ([14]; Liver): 0

C[C@]12C=CC(=O)N[C@@H]1CC[C@@H]1[C@@H]2CC[C@]2(C)[C@@H](C(=O)Nc3cc(C(F)(F)F)ccc3C(F)(F)F)CC[C@@H]12 [DUTASTERIDE]
HepSE_hepatomegaly [1]: 0 | HepSE_cirrhosis [2]: 0 | HepSE_cholelithiasis [3]: 0 | HepSE_hepatic failure [4]: 0 | HepSE_cholecystitis [5]: 0 | HepSE_hepatitis [6]: 0 | HepSE_jaundice [7]: 0 | HepSE_Combined Scores [8]: 0 | HepSE_liver function tests abnormal [9]: 0 | HepSE_bilirubinemia [10]: 0 | HepSE_liver fatty [11]: 0 | HepSE_liver disease [12]: 0 | HepSE_hepatic necrosis [13]: 0 | HepSE_elevated liver function tests [14]: 0

Cc1cccc(Nc2ccncc2S(=O)(=O)NC(=O)NC(C)C)c1 [TORSEMIDE]
HepSE_hepatomegaly [1]: 0 | HepSE_cirrhosis [2]: 1 | HepSE_cholelithiasis [3]: 0 | HepSE_hepatic failure [4]: 1 | HepSE_cholecystitis [5]: 0 | HepSE_hepatitis [6]: 0 | HepSE_jaundice [7]: 0 | HepSE_Combined Scores [8]: 2 | HepSE_liver function tests abnormal [9]: 0 | HepSE_bilirubinemia [10]: 0 | HepSE_liver fatty [11]: 0 | HepSE_liver disease [12]: 0 | HepSE_hepatic necrosis [13]: 0 | HepSE_elevated liver function tests [14]: 0

O=C1Nc2ccc(Cl)cc2[C@@](C#CC2CC2)(C(F)(F)F)O1 [EFAVIRENZ]
HepSE_hepatomegaly [1]: 1 | HepSE_cirrhosis [2]: 0 | HepSE_cholelithiasis [3]: 0 | HepSE_hepatic failure [4]: 1 | HepSE_cholecystitis [5]: 0 | HepSE_hepatitis [6]: 1 | HepSE_jaundice [7]: 1 | HepSE_Combined Scores [8]: 4 | HepSE_liver function tests abnormal [9]: 0 | HepSE_bilirubinemia [10]: 0 | HepSE_liver fatty [11]: 0 | HepSE_liver disease [12]: 0 | HepSE_hepatic necrosis [13]: 0 | HepSE_elevated liver function tests [14]: 0

Nc1cc(Cl)c(N=C2NCCN2)c(Cl)c1 [APRACLONIDINE]
HepSE_hepatomegaly [1]: 0 | HepSE_cirrhosis [2]: 0 | HepSE_cholelithiasis [3]: 0 | HepSE_hepatic failure [4]: 0 | HepSE_cholecystitis [5]: 0 | HepSE_hepatitis [6]: 0 | HepSE_jaundice [7]: 0 | HepSE_Combined Scores [8]: 0 | HepSE_liver function tests abnormal [9]: 0 | HepSE_bilirubinemia [10]: 0 | HepSE_liver fatty [11]: 0 | HepSE_liver disease [12]: 0 | HepSE_hepatic necrosis [13]: 0 | HepSE_elevated liver function tests [14]: 0

CN(C)CCOC(=O)C(c1ccccc1)C1(O)CCCC1 (configuration not stated) [CYCLOPENTOLATE]
HepSE_hepatomegaly [1]: 0 | HepSE_cirrhosis [2]: 0 | HepSE_cholelithiasis [3]: 0 | HepSE_hepatic failure [4]: 0 | HepSE_cholecystitis [5]: 0 | HepSE_hepatitis [6]: 0 | HepSE_jaundice [7]: 0 | HepSE_Combined Scores [8]: 0 | HepSE_liver function tests abnormal [9]: 0 | HepSE_bilirubinemia [10]: 0 | HepSE_liver fatty [11]: 0 | HepSE_liver disease [12]: 0 | HepSE_hepatic necrosis [13]: 0 | HepSE_elevated liver function tests [14]: 0

COc1nc(N)nc2c1ncn2[C@@H]1O[C@H](CO)[C@@H](O)[C@@H]1O [NELARABINE]
HepSE_hepatomegaly [1]: 0 | HepSE_cirrhosis [2]: 0 | HepSE_cholelithiasis [3]: 0 | HepSE_hepatic failure [4]: 0 | HepSE_cholecystitis [5]: 0 | HepSE_hepatitis [6]: 0 | HepSE_jaundice [7]: 0 | HepSE_Combined Scores [8]: 0 | HepSE_liver function tests abnormal [9]: 0 | HepSE_bilirubinemia [10]: 0 | HepSE_liver fatty [11]: 0 | HepSE_liver disease [12]: 0 | HepSE_hepatic necrosis [13]: 0 | HepSE_elevated liver function tests [14]: 0

CC(C)c1cccc(C(C)C)c1O [PROPOFOL]
HepSE_hepatomegaly ([1]; Liver): 1 | HepSE_cirrhosis ([2]; Liver): 0 | HepSE_cholelithiasis ([3]; Liver): 0 | HepSE_hepatic failure ([4]; Liver): 0 | HepSE_cholecystitis ([5]; Liver): 0 | HepSE_hepatitis ([6]; Liver): 0 | HepSE_jaundice ([7]; Liver): 0 | HepSE_Combined Scores ([8]; Liver): 1 | HepSE_liver function tests abnormal ([9]; Liver): 0 | HepSE_bilirubinemia ([10]; Liver): 0 | HepSE_liver fatty ([11]; Liver): 0 | HepSE_liver disease ([12]; Liver): 0 | HepSE_hepatic necrosis ([13]; Liver): 0 | HepSE_elevated liver function tests ([14]; Liver): 0

CO/N=C(\C(=O)N[C@@H]1C(=O)N2C(C(=O)[O-])=C(C[N+]3(C)CCCC3)CS[C@H]12)c1csc(N)n1
HepSE_hepatomegaly [1]: 0 | HepSE_cirrhosis [2]: 0 | HepSE_cholelithiasis [3]: 0 | HepSE_hepatic failure [4]: 1 | HepSE_cholecystitis [5]: 0 | HepSE_hepatitis [6]: 0 | HepSE_jaundice [7]: 0 | HepSE_Combined Scores [8]: 1 | HepSE_liver function tests abnormal [9]: 0 | HepSE_bilirubinemia [10]: 0 | HepSE_liver fatty [11]: 0 | HepSE_liver disease [12]: 0 | HepSE_hepatic necrosis [13]: 0 | HepSE_elevated liver function tests [14]: 0

O=C[C@H](O)[C@@H](O)[C@@H](O)[C@H](O)CO [GALACTOSE]
HepSE_hepatomegaly [1]: 0 | HepSE_cirrhosis [2]: 0 | HepSE_cholelithiasis [3]: 0 | HepSE_hepatic failure [4]: 0 | HepSE_cholecystitis [5]: 0 | HepSE_hepatitis [6]: 0 | HepSE_jaundice [7]: 0 | HepSE_Combined Scores [8]: 0 | HepSE_liver function tests abnormal [9]: 0 | HepSE_bilirubinemia [10]: 0 | HepSE_liver fatty [11]: 0 | HepSE_liver disease [12]: 0 | HepSE_hepatic necrosis [13]: 0 | HepSE_elevated liver function tests [14]: 0

COCCCOc1ccnc(C[S+]([O-])c2nc3ccccc3[nH]2)c1C (configuration not stated) [RABEPRAZOLE]
HepSE_hepatomegaly [1]: 0 | HepSE_cirrhosis [2]: 1 | HepSE_cholelithiasis [3]: 1 | HepSE_hepatic failure [4]: 0 | HepSE_cholecystitis [5]: 1 | HepSE_hepatitis [6]: 1 | HepSE_jaundice [7]: 1 | HepSE_Combined Scores [8]: 7 | HepSE_liver function tests abnormal [9]: 1 | HepSE_bilirubinemia [10]: 0 | HepSE_liver fatty [11]: 1 | HepSE_liver disease [12]: 0 | HepSE_hepatic necrosis [13]: 0 | HepSE_elevated liver function tests [14]: 0

CCCN1CCCC[C@H]1C(=O)Nc1c(C)cccc1C [ROPIVACAINE]
HepSE_hepatomegaly [1]: 0 | HepSE_cirrhosis [2]: 0 | HepSE_cholelithiasis [3]: 0 | HepSE_hepatic failure [4]: 0 | HepSE_cholecystitis [5]: 0 | HepSE_hepatitis [6]: 0 | HepSE_jaundice [7]: 1 | HepSE_Combined Scores [8]: 1 | HepSE_liver function tests abnormal [9]: 0 | HepSE_bilirubinemia [10]: 0 | HepSE_liver fatty [11]: 0 | HepSE_liver disease [12]: 0 | HepSE_hepatic necrosis [13]: 0 | HepSE_elevated liver function tests [14]: 0

CC(=O)O[C@]1(C(C)=O)CC[C@H]2[C@@H]3C=C(C)C4=CC(=O)CC[C@]4(C)[C@H]3CC[C@@]21C [MEGESTROL ACETATE]
HepSE_hepatomegaly [1]: 1 | HepSE_cirrhosis [2]: 0 | HepSE_cholelithiasis [3]: 0 | HepSE_hepatic failure [4]: 0 | HepSE_cholecystitis [5]: 0 | HepSE_hepatitis [6]: 0 | HepSE_jaundice [7]: 0 | HepSE_Combined Scores [8]: 1 | HepSE_liver function tests abnormal [9]: 0 | HepSE_bilirubinemia [10]: 0 | HepSE_liver fatty [11]: 0 | HepSE_liver disease [12]: 0 | HepSE_hepatic necrosis [13]: 0 | HepSE_elevated liver function tests [14]: 0

Cc1c(-c2ccccc2)oc2c(C(=O)OCCN3CCCCC3)cccc2c1=O [FLAVOXATE]
HepSE_hepatomegaly [1]: 0 | HepSE_cirrhosis [2]: 0 | HepSE_cholelithiasis [3]: 0 | HepSE_hepatic failure [4]: 0 | HepSE_cholecystitis [5]: 0 | HepSE_hepatitis [6]: 0 | HepSE_jaundice [7]: 0 | HepSE_Combined Scores [8]: 0 | HepSE_liver function tests abnormal [9]: 0 | HepSE_bilirubinemia [10]: 0 | HepSE_liver fatty [11]: 0 | HepSE_liver disease [12]: 0 | HepSE_hepatic necrosis [13]: 0 | HepSE_elevated liver function tests [14]: 0

HEPARIN
HepSE_hepatomegaly [1]: 0 | HepSE_cirrhosis [2]: 0 | HepSE_cholelithiasis [3]: 0 | HepSE_hepatic failure [4]: 0 | HepSE_cholecystitis [5]: 0 | HepSE_hepatitis [6]: 0 | HepSE_jaundice [7]: 0 | HepSE_Combined Scores [8]: 1 | HepSE_liver function tests abnormal [9]: 0 | HepSE_bilirubinemia [10]: 0 | HepSE_liver fatty [11]: 0 | HepSE_liver disease [12]: 1 | HepSE_hepatic necrosis [13]: 0 | HepSE_elevated liver function tests [14]: 0
